Experimental data as given in patent US20090023700A1, “NEUROPROTECTIVE TREATMENTS” (University of Louisville Research Foundation, priority 2007, published 2009).

Legend:
[1] = test system: rat cardiomyocytes; conditions: cited from earlier work
[2] = test system: cdc25B PTP; conditions: yeast enzyme; cited from earlier work
[3] = test system: PTPs; conditions: cited from earlier work
[4] = test system: T9 contusive spinal cord injury; assay: Grid-walking sensorimotor test after T9 contusion
Description: Rats received a 0.3 mm contusion at T9 and 4 h later were implanted with a lumbar catheter to start infusions with PBS (n=9) or PBS containing 100 μM bpV(phen) (n=9). The treatment was maintained for 28 d by replacing the Alzet pumps every week with ones containing fresh reagents (FIG. 1A). Weekly hindlimb grid-walking performance was used to test sensorimotor function, which is in part dependent on the primary afferents and second-order propriospinal axons of the fasciculus gracilis in the dorsal columns. […] Naive rats take ˜150 s to complete the task.
Baseline values were determined a few days before the contusion. Sensorimotor function was tested by voluntary walking on a 45×45 inch grid with 1.5 inch holes. The hindlimb footfalls were called out by two investigators observing from different sides and recorded by a third. The test was completed after 90 s of walking was observed, and the total time was recorded.

[5] = test system: Iba1; assay: Iba1 immunostaining (microglial/macrophage activation) after T9 contusion; type: in vivo, rat; conditions: 7 d infusion started 4 h after injury
Description: Inflammation is a major contributor to white matter loss after spinal cord injury. Therefore, to find a potential mechanism for the axon- and myelin-protective effects of bpV(phen), its effects on Iba1 immunostaining were measured as a marker for microglial/macrophage activation and inflammation. […] Whereas, PBS-infused rats had clear infiltrates of activated macrophages, those infused with bpV(phen) had predominantly […] microglial cells. […] The extent of white matter loss in the dorsal column at the epicenter correlated to the extent of microglia/macrophage activation at the epicenter (FIG. 8B). The extent of inflammation 1 mm rostral to the injury correlated with the loss of CTB-labeled sensory projections in the gracile nucleus (FIG. 8C) but not with that seen at the epicenter (p=0.3) or caudal to the lesion (p=0.57). […] Conversely, the possibility that bpV(phen) affected inflammation at other times over the 7 d period cannot be excluded.
(§1) Anterogradely labeled sensory fibers and terminals were visualized in every third section through both gracile nuclei by DAB-based immunostaining for CTB as described previously (Baker et al. (2007) Exp Neurol 205:82-91). The lumbar sections were stained to ensure that the CTB injections were successful as evidenced by traced afferents and motor neurons. […] The epicenter of maximal injury was determined by the rostrocaudal level with the least amount of spared white matter per transverse section. […]
Quantitative measurements and statistics. The extent of sensory innervation of the gracile nucleus was determined by measuring the CTB-labeled terminal fiber area in every third section as described previously (Baker et al. (2007) Exp Neurol 205:82-91). In short, images of every third section through the right and left gracile nuclei were analyzed using the density slice feature of the Scion Image software. […] Images of EC-stained sections were captured, and the positive areas were measured with Scion Image. […]

[6] = test system: C6 cells; conditions: cited from earlier work
[7] = test system: T9 contusive spinal cord injury; assay: Sensory-evoked potentials (SEP) after 0.4 mm T9 contusion; type: in vivo, rat; conditions: 0.4 mm contusion
[8] = test system: RECA1; assay: RECA1 immunostaining (dorsal column blood vessels at epicenter) after T9 contusion; type: in vivo, rat; conditions: for area of blood vessels (RECA1) in the dorsal column: 7 d infusion started immediately after injury
Description: Another potential contributor to axon loss is ischemia caused by blood vessel loss. To test this possibility, the same sections were analyzed for the extent of endothelial cell/blood vessel sparing by immunostaining for RECA1. […] Therefore, epicenter RECA1 was measured in additional 7 d postinjury groups, excluding those infused at the epicenter and those with an epicenter transection (SEP), which damaged the tissue. The bpV(phen) treatment (started immediately after the injury) increased the area of blood vessels in the dorsal column in those rats infused with 30 and 100 μM bpV(phen) (FIG. 8E). […] However, there was no correlation between RECA1- and EC-stained dorsal column epicenter white matter (p=0.98).
as §1
Quantitative measurements and statistics. The extent of sensory innervation of the gracile nucleus was determined by measuring the CTB-labeled terminal fiber area in every third section as described previously (Baker et al. (2007) Exp Neurol 205:82-91). In short, images of every third section through the right and left gracile nuclei were analyzed using the density slice feature of the Scion Image software. […] Images of EC-stained sections were captured, and the positive areas were measured with Scion Image. […] The number of spared myelinated axons at C3 was counted in semithin sections using a 63× oil objective in 15.7×15.7 μm grids placed over the middle part of each fasciculus gracilis (see FIG. 4D-4F). […]

Compound: O.O.O.OO.OO.[K+].[OH-].[V].c1cnc2c(c1)ccc1cccnc12 [bpV(phen), potassium bisperoxo(1,10-phenanthroline)oxovanadate (V)]
- glutathione concentration [1]: does not change
- inhibition of catalytic activity of purified cdc25B PTP [2]: can inhibit
- inhibition of PTPs [3]: inhibits
- total time to perform 90 s of grid walking ([4]; 100 μM L5/6 infusion started 4 h after contusion, 8 d, PBS 219 s, naive ~150 s): 151 s
- number of hindlimb footfalls (sum of both hindlimbs), grid walk ([4]; 100 μM L5/6 infusion started 4 h after contusion, 8 d test, PBS 29+/−6, before contusion 7+/−1): 14+/−2
- rats within normal range of footfalls (3-14) ([4]; 100 μM L5/6 infusion started 4 h after contusion, day 8, PBS one of nine): seven of nine
- number of hindlimb footfalls, grid walk ([4]; 100 μM, 28 d L5/6 infusion started 4 h after contusion, 29 d test, PBS 13+/−2): 6+/−1
- total time to perform 90 s of grid walking ([4]; 100 μM, 28 d L5/6 infusion started 4 h after contusion, 36 d, PBS 200 s): 125 s
- area of Iba1-immunostained structures ([5]; 1 mm caudal to epicenter, p=0.49): no difference
- area of Iba1-immunostained structures ([5]; 1 mm rostral to epicenter, p<0.005): significantly reduced
- area of Iba1-immunostained structures ([5]; at the epicenter, p=0.053): trend of a reduction
- oxidative damage to DNA [6]: does not cause oxidative damage to DNA
- SEP amplitude, group average ([7]; 100 μM 7 d lumbar infusion started immediately, one week after contusion, PBS 6+/−6, sham 16): 21+/−7 μV
- rats with an SEP above background noise ([7]; 100 μM 7 d lumbar infusion, one week after contusion, PBS one of five): four of five
- SEP amplitude, group average ([7]; 100 μM 7 d lumbar infusion, one week after termination of infusion, PBS 2+/−2, sham 36): 30+/−18 μV
- rats with a detectable SEP ([7]; 100 μM 7 d lumbar infusion, one week after termination of infusion, PBS one rat): all rats
- area of blood vessels (RECA1) in the dorsal column ([8]; 30 μM): increased
- area of blood vessels (RECA1) in the dorsal column ([8]; 100 μM): increased
- blood vessels (RECA1) in the dorsal column at the epicenter ([8]; 7 d infusion started 4 h after injury, area not significantly different from sham): sparing
